Results on 21 compounds are retold here after patent US20200288710A1, “SUBSTITUTED SULPHONAMIDES FOR CONTROLLING ANIMAL PESTS” (BAYER CROPSCIENCE AKTIENGESELLSCHAFT, priority 2016, published 2020).

For test [1], the system named is Myzus persicae. Kind of test: Myzus persicae oral test. The format is in vivo. Conditions: 120 h, 20 ppm, oral uptake, after 5 days, read-out: efficacy. In short, it runs like this:
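Compound dissolved in acetone, diluted in water, then mixed 50:150 μl with IPL41 insect medium (33%+15% sugar). Mixed-population green peach aphids feed through a parafilm seal on the solution; mortality scored as % efficacy after 5 days (100% = all killed).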

The test system of test [2] is Meloidogyne incognita. Nature of the test: Meloidogyne incognita test. It counts as in vivo. Conditions: 336 h, lettuce, after 14 days, read-out: nematicidal efficacy (formation of galls). The protocol:
Meloidogyne incognita Test Solvent: 125.0 parts by weight of acetone To produce a suitable active compound preparation, 1 part by weight of active compound is mixed with the stated amount of solvent and the concentrate is diluted with water to the desired concentration. Vessels are filled with sand, active compound solution, an egg/larvae suspension of the southern rootknot nematode (Meloidogyne incognita) and lettuce seeds. The lettuce seeds germinate and the plants develop. The galls develop on the roots. After 14 days, the nematicidal efficacy in % is determined by the formation of galls. 100% means that no galls were found; 0% means that the number of galls on the treated plants corresponds to the untreated control.

Take `CCOc1c(Cl)cccc1S(=O)(=O)NC(=O)c1cn(C)c(-c2c(F)cccc2F)n1` [Example 314]: the results for the pest or weed control at 20 ppm in test [1] and in test [2] were 100% and 90%, respectively.
Taken in the same sequence, the figures for `Cn1cc(C(=O)NS(=O)(=O)Cc2cccc(Cl)c2)nc1-c1ccccc1Cl` [Example 61] were 100% and 100%.
Turning to `O=C(NS(=O)(=O)C1CC1)c1cc(-c2ncccc2Cl)n(-c2ccccc2Cl)n1` [Example 456], the pest or weed control at 20 ppm in test [1] and in test [2] was 100% throughout.
Regarding `CCc1[nH]c(-c2ccc(Cl)cc2)nc1C(=O)NS(=O)(=O)c1ccccc1C` [Example 590], the pest or weed control at 20 ppm is 100% in test [1] and 90% in test [2].
The corresponding values for `Cc1cccc(C)c1-c1nc(C(=O)NS(=O)(=O)c2ccccc2Cl)cn1C` [Example 477] are 90% and 90%.
Take `CC(C)c1ccccc1-c1nc(C(=O)NS(=O)(=O)c2ccccc2Cl)cn1C` [Example 209]: the pest or weed control at 20 ppm in test [1] and in test [2] was 90% in each case.
Consider `Cc1[nH]c(-c2ccccc2Cl)nc1C(=O)NS(=O)(=O)C(C)C` [Example 625], for which the pest or weed control at 20 ppm in test [1] was 90%; in test [2], 100%.
The corresponding values for `CC(C)Sc1cccc(Cl)c1S(=O)(=O)NC(=O)c1cn(C)c(-c2c(F)cccc2F)n1` [Example 386] are 100% and 90%.
Taken in the same sequence, the figures for `CC(C)CS(=O)(=O)NC(=O)c1cn(C)c(-c2c(F)cccc2Cl)n1` [Example 325] were 100% and 90%.
As to `CCc1ccccc1-c1nc(C(=O)NS(=O)(=O)c2ccccc2Cl)cn1C` [Example 496], the results for the pest or weed control at 20 ppm in test [1] and in test [2] were 90% and 100%, respectively.
The corresponding values for `CC(C)c1cccc(-c2nc(C(=O)NS(=O)(=O)c3ccccc3Br)cn2C)c1` [Example 330] are 90% and 90%.
The corresponding values for `Cn1cc(C(=O)NS(=O)(=O)c2ccc(Br)s2)nc1-c1c(F)cccc1F` [Example 353] are 90% and 90%.
The corresponding values for `COc1ccc(Cl)c(S(=O)(=O)NC(=O)c2c[nH]c(-c3c(F)cccc3F)n2)c1` [Example 411] are 100% and 90%.
For `Cn1cc(C(=O)NS(=O)(=O)c2ccc(Cl)c(Cl)c2)nc1-c1c(F)cccc1F` [Example 187], the results for the pest or weed control at 20 ppm in test [1] and in test [2] were 100% and 90%, respectively.
Take `Cc1[nH]c(-c2cccc(Cl)c2)nc1C(=O)NS(=O)(=O)c1ccccc1Cl` [Example 233]: the pest or weed control at 20 ppm in test [1] is 100%; in test [2], 90%.
The corresponding values for `CCn1c(C(=O)NS(=O)(=O)c2ccccc2Cl)nc(-c2c(F)cccc2F)c1C` [Example 414] are 100% and 100%.
Taken in the same sequence, the figures for `Cc1ccccc1-c1nc(C(=O)NS(=O)(=O)c2ccc(Cl)cc2)cn1C` [Example 49] were 100% and 100%.
The corresponding values for `COc1ccc(Cl)c(S(=O)(=O)NC(=O)c2nc(-c3ccccc3Cl)[nH]c2C)c1` [Example 239] are 100% and 90%.
Regarding `Cc1[nH]c(-c2c(F)cccc2F)nc1C(=O)NS(=O)(=O)c1ccccc1Cl` [Example 192], the pest or weed control at 20 ppm in test [1] is 100%; in test [2], 90%.
Taken in the same sequence, the figures for `CCn1cc(C(=O)NS(=O)(=O)c2cccc(Cl)c2)nc1-c1ccccc1Cl` [Example 40] were 100% and 100%.
Taken in the same sequence, the figures for `Cc1[nH]c(C(=O)NS(=O)(=O)C(C)C)nc1-c1ccccc1Cl` [Example 202] were 100% and 90%.
